We go through one compound from patent US20020048572A1, “Treatment of hypertriglyceridemia and other conditions using LXR modulators” (priority 2000, published 2002).

The test system of assay [1] is LXRα/β−/− mice liver mRNA. The assay is described as follows: Northern blot analysis of hepatic mRNA in LXRα/β−/− mice. The class given is in vivo, mouse. As for the experimental part:
(§1) FIG. 10. […] Pooled plasma (50 μL from each of five mice per group) was fractionated and lipids analyzed as described. Shown are the concentrations for (A) FPLC triglyceride, (B) FPLC phospholipid, and (C) hepatic triglyceride. (D) Northern blot analysis of hepatic SREEP-I, SREBP-2, SCD-1, FAS, and ACC mRNA levels.

Assay [2] relates to LXRα/β−/− mice. The assay is described as follows: Plasma and hepatic lipid analysis in LXRα/β−/− mice. Type of assay: in vivo, mouse. As for the experimental part:
as §1
C57BL/6 mice (Charles River Laboratories) were between 6 and 10 wk old and weighed ˜20-30 g at the initiation of treatment. Golden Syrian Hamsters (Harlan Sprague-Dawley) were between 12 and 16 wk old (80-150 g). […] LXRα and β−/− mice were reared at the University of Texas Southwestern (UTSW) Medical Center at Dallas in accordance with the Institutional Animal Care and Research Advisory Committee at the UTSW Medical Center.
FPLC of plasma lipoproteins was accomplished using 200 μL aliquots of pooled plasma (from three to five animals) and fractionated on Superose 6 columns (Pharmacia). Cholesterol, triglyceride, and phospholipid concentrations in the fractions were determined enzymatically with reagents from Boehringer, Sigma, and Wako, respectively.

The target in assay [3] is Gal4-LXRβ (Homo sapiens, UniProt P55055). The experiment in a line: HEK293 Gal4-nuclear receptor chimera luciferase reporter assay. The class given is cell-based. Particulars: T0901317 1 μM, T0314407 5 μM, 20 h. The source says: (§2) FIG. 7. (A) Dose responses to LXR ligands in an HEK293 transient transfection assay using a wild-type LXRα expression plasmid and a luciferase reporter gene containing two copies of an LXR response element. DMSO treatments were used to derive the basal level of activation. […] HEK293 cells were cotransfected with a luciferase reporter gene containing four copies of the Gal4 DNA-binding site and the various chimeric Gal4 (DNA-binding domain)-nuclear receptor (ligand-binding domain) proteins shown.
(§3) HEK293 cells were cotransfected with a luciferase reporter gene and the various Gal4-nuclear receptor chimeric constructs shown and a β-galactosidase (β-gal) expression vector for normalization. Transfected cells were treated with the indicated compounds for 20 h before being harvested. Transfection data and luciferase results are normalized to β-gal and expressed as the fold-induction relative to DMSO controls.
(§4) PXR, a nuclear receptor involved in the CYP3A-mediated metabolism of a diverse collection of xenobiotics, is known to be activated by a large number of synthetic compounds (Jones et al., Mol. Endocrinol. 14:27-39 (2000)).

Assay [4] addresses Gal4-LXRα (Homo sapiens, UniProt Q13133). The assay is described as above. Type of assay: cell-based. To be noted: T0901317 1 μM, T0314407 5 μM, 20 h.
Description: as §2, §3, §4

For assay [5], the system named is C57BL/6 mice. The assay is described as follows: Plasma lipid analysis in C57BL/6 mice. Type of assay: in vivo, mouse. To be noted: oral treatment. The text has this:
FIG. 8. Plasma lipid levels in animals treated with LXR agonist T0901317. The concentrations of (A) plasma triglycerides and (B) HDL-cholesterol for C57BL/6 mice (n=5, for each treatment group, M, males, F, females). (C) Separation of Golden Syrian hamster plasma by fast protein liquid chromatography (FPLC) in combination with analysis of the triglyceride content across PPLC fractions. Lipid data are reported as the mean ±SD for the number of determinations (animals) described in each experiment. Statistical significance (kybd) was defined as P<0.05 (ANOVA using SAS programming statistical test for controls and LXR agonist-treated animals). C57BL/6 mice (Charles River Laboratories) were between 6 and 10 wk old and weighed ˜20-30 g at the initiation of treatment. Golden Syrian Hamsters (Harlan Sprague-Dawley) were between 12 and 16 wk old (80-150 g). Animals were fed regular chow diets containing ˜4% fat and 0.02% cholesterol (PMI Pi-colab 5053 Chow). LXRα and β−/− mice were reared at the University of Texas Southwestern (UTSW) Medical Center at Dallas in accordance with the Institutional Animal Care and Research Advisory Committee at the UTSW Medical Center. Mice at UTSW were maintained on a 12 h light/12 h dark cycle and fed ad libitum a cereal-based mouse chow diet (No. 7001, Harlan Teklad). Plasma was prepared from euthanized mice using standard centrifugation techniques and analyzed for plasma total cholesterol, HDL cholesterol, and triglyceride concentrations using a Hitachi 704 Clinical Analyzer. FPLC of plasma lipoproteins was accomplished using 200 μL aliquots of pooled plasma (from three to five animals) and fractionated on Superose 6 columns (Pharmacia). Cholesterol, triglyceride, and phospholipid concentrations in the fractions were determined enzymatically with reagents from Boehringer, Sigma, and Wako, respectively. Hepatic lipids were extracted and analyzed for triglyceride essentially as described (Bucolo, G. and David, H., Clin. Chem. 19:476-482 (1973); Yokode et al., Science 250:1273-1275 (1990)).

For assay [6], the target named is T1, LXRα (Homo sapiens, UniProt Q13133).
T1 sequence (Q13133 1-447): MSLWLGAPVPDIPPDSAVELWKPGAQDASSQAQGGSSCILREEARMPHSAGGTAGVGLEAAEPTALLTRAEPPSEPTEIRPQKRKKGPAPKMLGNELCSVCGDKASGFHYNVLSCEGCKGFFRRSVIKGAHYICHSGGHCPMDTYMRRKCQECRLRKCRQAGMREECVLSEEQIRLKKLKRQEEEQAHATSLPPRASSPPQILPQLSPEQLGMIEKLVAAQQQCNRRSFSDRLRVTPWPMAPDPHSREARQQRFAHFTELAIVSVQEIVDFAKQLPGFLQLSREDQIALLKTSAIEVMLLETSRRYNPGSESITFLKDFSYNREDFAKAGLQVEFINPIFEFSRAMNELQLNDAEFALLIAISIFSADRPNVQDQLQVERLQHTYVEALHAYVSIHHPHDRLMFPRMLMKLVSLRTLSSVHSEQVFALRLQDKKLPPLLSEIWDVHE
Particulars: fold relative to DMSO.

Gal4-LXRα, sequence (P04386 1-147 partner limits assumed, one chain of several): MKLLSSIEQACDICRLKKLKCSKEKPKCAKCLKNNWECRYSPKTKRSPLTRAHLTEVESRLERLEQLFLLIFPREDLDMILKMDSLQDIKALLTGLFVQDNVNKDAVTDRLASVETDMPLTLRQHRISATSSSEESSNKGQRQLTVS
Gal4-LXRβ, sequence (P55055 222-460 limits assumed): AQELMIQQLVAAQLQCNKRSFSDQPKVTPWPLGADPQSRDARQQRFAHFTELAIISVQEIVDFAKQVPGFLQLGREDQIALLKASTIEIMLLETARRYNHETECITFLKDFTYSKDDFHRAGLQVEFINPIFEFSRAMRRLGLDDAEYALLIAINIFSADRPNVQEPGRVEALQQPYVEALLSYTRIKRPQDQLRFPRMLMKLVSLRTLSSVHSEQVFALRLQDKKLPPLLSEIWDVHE
Gal4-LXRβ, sequence (P04386 1-147 partner limits assumed): as the sequence (P04386 1-147 partner limits assumed, one chain of several) above

For the compound `O=S(=O)(c1ccccc1)N(CC(F)(F)F)c1ccc(C(O)(C(F)(F)F)C(F)(F)F)cc1` [T0901317, N-(2,2,2-trifluoro-ethyl)-N-[4-(2,2,2-trifluoro-1-hydroxy-1-trifluoromethyl-ethyl)-phenyl]-benzenesulfonamide], in assay [1], the “regulation of the SREBP-1, SCD-1, FAS, or ACC gene” value was “lack of regulation”. For the same compound, in assay [2] (LXRα/β−/− mice vs vehicle-treated LXRα/β−/−), the total plasma triglyceride entry was “scant increases”. Further, in assay [2] (LXRα/β−/− mice, 7 d), the hepatic triglyceride levels result was “no significant elevation” and the “plasma VLDL-triglyceride” value is “relatively minute increase”. Further, the “transactivation of chimeric Gal4-LXRβ” value in assay [3] is recorded as “transactivation was also noted”. For the same compound, the “transcriptional activation of Gal4-LXRα” value in assay [4] is given as “highest activity”. In addition, in assay [5], the HDL-phospholipid result is reported as “comparable increases”, the “plasma total cholesterol (mainly HDL cholesterol)” value is “comparable increases”, the plasma triglycerides result is reported as “significant elevations” and the “plasma very low density lipoproteins (VLDL) triglycerides” value is given as “Increases”. In assay [6], the “induction of transcriptional activity of LXRα” value is on record as “eightfold”.
